# Source: US7271239B2, “D-isomers of antimicrobial peptide” (The Research Foundation of State University of New York, priority 2004, dated 2007)
# Several values for one entry are separate records, joined by “and”; a condition that tells them apart may be missing. Equal entries are not always repeated. Where two headings read alike, the source gives them in different places. Where a SMILES comes first, the peptide text is derived from it. Where no end group is shown, it is not given here. [ ]: non-standard residue; d: D form.
# Tests used:
# [1] = Stability of peptides in saliva (SDS-PAGE); assay type: in vitro ADME, human
# Description: FIGS. 3A and 3B. Stability of antimicrobial peptides in (3A) Trypsin and (3B) unclarified saliva. Each peptide (3 μg in 5 μl of 0.5 M Tris-HCl buffer pH 7.5) was incubated with: 0.2 μg/ml trypsin containing PIC or no PIC for 0.5 h; or saliva (10 μl) for 1 h. The control of each compound was also incubated with Tris-HCl buffer in parallel. The samples were analyzed by 13% SDS-PAGE. The gel was stained with Coomassie brilliant blue and further analyzed for the peptide degradation by GS-700 Imaging Densitometer. The degradation was estimated by the equation: 1−(density of test band/density of control band)×100%. Ctrol: each peptide alone; T: trypsin plus peptide; T+PIC: trypsin containing PIC plus peptide; S: saliva plus peptide; S+PIC: saliva containing PIC plus peptide.
# Stability of peptides in saliva and susceptibility of septides to trypsin. Three microliters of each peptide (MUC7 12-mer-D, MUC7 12-mer-L, Hsn5 12-mer, or Magainin-II, at 1 μg/μl in 0.2 M Tris-HCl buffer pH 7.5) were incubated with 11 μl of 0.2 μg/ml trypsin or saliva. This gave a final concentration of 0.16 μg/ml for trypsin, and 0.2 μg/μl for peptides (or 127, 127, 128, and 81 μM, for MUC7 12-mer-D, MUC7 12-mer-L, Hsn5 12-mer, or Magainin II, respectively). The reactions, without PIC (water instead or PIC) or with 1×PIC [50% (v/v)] were incubated 0.5 h with trypsin, and 1 hr with saliva (clarified or unclarified) at 37° C. The control of each compound was also incubated with Tris-HCl buffer in parallel. The samples were analyzed by 13% SDS-PAGE. Gels was stained with Coomassie brilliant blue R-250 and further analyzed for the peptide degradation by GS-700 Imaging Densitometer (Bio Red). The degradation was estimated by the equation: 1−(density of test band/density of control band)×100%.
# S. mutans = experiment: microbe, parasite or virus in culture
# From the text: (§1) The bacteria used in this study included Streptococcus mutans ATCC10449, Streptococcus mutans AU 159, Streptococcus mutans GS-5, Streptococcus mutans GS-5 mutant (^gtf BCD), Streptococcus gordonii Challis, Porphyromonas gingivalis W50, Porphyromonas gingivalis 381, A. actinomycetemcomitans NCTC 9710, Pseudomonas aeruginosa ATCC 17648, and Escherichia coli HB101. One quarter strength (25%) of brain heart infusion broth (BHI, DIFCO Laboratories, Detroit, Mich.) was used for the growth of S. mutans, S. gordonii, A. actinomycetemcomitans, Ps. aeruginosa, and E. coli. For growth of P. gingivalis, tryptic soy broth-yeast extract medium (TSBY, DIFCO Laboratories, Detroit, Mich.) supplemented with cysteine hydrochloride (0.05%), menadione (0.02 μg/ml), hemin (5 μg/ml), and potassium nitrate (0.02%) was used. All bacteria were cultured at 37° C.; Ps. aeruginosa and E. coli were grown aerobically, and the other bacteria, anaerobically. To prepare bacterial cell suspension for antibacterial activity assays, each overnight culture was harvested by centrifuge (3783 g, 10 min), washed once with 10 mM sodium phosphate-buffered saline (PBS, pH 7.2), resuspended in PBS and adjusted to a concentration of 1×10^6 cells/mL.
# (§2) MICs of the peptides were determined by broth microdilution method as previously described (5). Briefly, two-fold serial dilutions of each peptide were prepared with 25% BHI medium at a volume of 200 μl per well in 96-well flat-bottom microtiter plates (Costar, Cambridge, Mass.). The final concentration of the peptides ranged from 0.78 to 100 μM, and chlorhexidine (CHX), used as a positive control, from 20 to 0.16 μM (10 to 0.078 μg/mL). The microtiter plate was inoculated with bacterial cell suspension with final concentration of 5×10^6 CFU/mL for P. gingivalis and 5×10^5 CFU/mL for the other bacterial species. After incubation at 37° C. for 48 h, the absorbance was measured at 595 nm by using a microplate reader (Model 3550, Bio-Rad, Japan) to assess the cell growth. […] The MIC value represents the median of at least three independent experiments. The minimal bactericidal concentration (MBC) was determined as follows. Aliquot (100 μl) of cell suspension was taken from two wells above MIC, centrifuged, and washed three times with PBS. Then each cell suspension was plated on TSBY agar plate, and bacterial cells were enumerated after incubation at 37° C. for 48 h. The MBC was defined as the lowest concentration of the peptide at which more than 99.9% of cells were killed compared to non-treated control.
# [2] = tested on: A. actinomycetemcomitans NCTC 9710; experiment: microbe, parasite or virus in culture; assay type: cell-based; conditions: for MBC / MIC: Aggregatibacter actinomycetemcomitans, NCTC9710
# From the text: as §1, §2
# P. gingivalis = experiment: microbe, parasite or virus in culture; assay type: cell-based, Porphyromonas gingivalis; conditions: for MBC / MIC: Porphyromonas gingivalis
# From the text: as §1, §2
# [3] = tested on: Ps. aeruginosa ATCC 17648; experiment: microbe, parasite or virus in culture; assay type: cell-based, Pseudomonas aeruginosa; conditions: for MBC / MIC: Pseudomonas aeruginosa, ATCC17648
# From the text: as §1, §2
# E. coli HB101 = experiment: microbe, parasite or virus in culture; assay type: cell-based, Escherichia coli; conditions: for MBC / MIC: Escherichia coli, HB101
# From the text: as §1, §2
# [4] = tested on: S. mutans GS-5 1-day biofilm; assay type: cell-based, Streptococcus mutans
# Description: FIG. 12. Effect of peptides on 1-day biofilm of S. mutans. One-day mature biofilm was prepared as described above. BHI medium supplemented with 1% sucrose (BHIS) with peptides, prepared in another microtiter plate, was then transferred to the biofilm plate. After further incubation at 37° C. for 24 h, the biofilm was fixed, stained, and quantified as describe above. Data represents mean and SD of two independent tests performed in duplicated. Empty bar: growth, solid bar: biofilm.
# To examine the effects of the peptides on 1-day mature biofilm, S. mutans GS-5 was inoculated into the wells of another polystyrene microtiter plate containing BHIS at a volume of 200 μl per well. After incubation at 37° C. for 24 h, the culture supernatants from each well were decanted and planktonic cells were removed by washing with PBS. BHIS containing 0.78 to 100 μM peptides, prepared in another microtiter plate, was then transferred to the 1-day biofilm plate, and further incubated at 37° C. for one day. The biofilm was fixed, stained, and quantified as describe above.
# [5] = median of four strains (GS-5, GS-5 gtfBCD, AU 159, ATCC10449), 25% BHI, 48 h
# [6] = median of two strains (W 50, 381)
# [7] = lowest concentration with 50% or more eradication of 1-day biofilm
compound,measurement,setting,value
CC(C)C[C@@H](NC(=O)[C@@H](CS)NC(=O)[C@@H](CCCCN)NC(=O)[C@@H](Cc1ccc(O)cc1)NC(=O)[C@@H](CO)NC(=O)[C@@H](CCCCN)NC(=O)[C@H](N)CCCNC(=N)N)C(=O)N[C@H](Cc1c[nH]cn1)C(=O)N[C@H](CCCCN)C(=O)N[C@H](CCCNC(=N)N)C(=O)N[C@H](CS)C(=O)N[C@H](CCCNC(=N)N)C(=O)O [MUC7 12-mer-D] (H-[dR][dK][dS][dY][dK][dC][dL][dH][dK][dR][dC][dR]-OH; N-terminus and C-terminus assumed),degradation by saliva,[1],resistant to the degradation
same,MBC (μM),S. mutans; median of four strains,12.5 µM
same,MIC,S. mutans; [5],12.5 µM
same,MBC (μM),[2]; NCTC 9710,>100 µM
same,MBC (μg/ml),[2]; NCTC 9710,>158 µg/mL
same,MIC (μM),[2]; NCTC 9710,>100 µM
same,MIC (μg/ml),[2]; NCTC 9710,>158 µg/mL
same,MBC (μM),P. gingivalis,100.0 µM
same,MBC (μg/ml),P. gingivalis,79.0 µg/mL
same,MIC (μM),P. gingivalis,50.0 µM
same,MBC (μM),[3]; ATCC 17648,>100 µM
same,MBC (μg/ml),[3]; ATCC 17648,>158 µg/mL
same,MIC (μM),[3]; ATCC 17648,100.0 µM
same,MBC (μM),E. coli HB101,12.5 µM
same,MIC (μM),E. coli HB101,12.5 µM
same,MBEC50 (μM),"[4]; GS-5 1-day biofilm, 24 h",25 µM
GIGKFLHSAKKFGKAFVGEIMNS [Magainin-II],degradation by saliva,"[1]; unclarified saliva, 1 h, 37° C., SDS-PAGE",degraded
same,MBC (μM),S. mutans; median of four strains,50.0 µM
same,MIC,S. mutans; median of four strains,61.7 µg/mL
same,MIC,S. mutans; [5],25 µM
same,MBC (μM),[2],50.0 µM
same,MBC (μg/ml),[2],123.5 µg/mL
same,MIC (μM),[2],50.0 µM
same,MIC (μg/ml),[2],123.5 µg/mL
same,MIC (μM),P. gingivalis; [6],>100 µM
same,MIC (μg/ml),P. gingivalis; [6],>246.9 µg/mL
same,MBC (μM),[3],100.0 µM
same,MBC (μg/ml),[3],246.9 µg/mL
same,MIC (μM),[3],>100 µM
same,MIC (μg/ml),[3],>246.9 µg/mL
same,MBC (μM),E. coli HB101,12.5 µM
same,MBC (μg/ml),E. coli HB101,30.9 µg/mL
same,MIC (μM),E. coli HB101,12.5 µM
same,MIC (μg/ml),E. coli HB101,30.9 µg/mL
same,MBEC50 (μg/ml),[4],>125 µg/mL
same,eradication of 1-day developed biofilm,[4]; at or more than MBEC50,eradication was not observed
same,MBEC50 (μM),[4]; [7],>50 µM
"[H]/N=C(\N/C(=N/[H])NCCCCCCNC(=N)NC(=N)Nc1ccc(Cl)cc1)Nc1ccc(Cl)cc1 [Chlorhexidine, Chlorhexidine digluconate]",MBC,S. mutans; Streptococcus mutans,2.5 µM and 1.2 µg/mL
same,MIC,S. mutans; Streptococcus mutans,1.2 µg/mL
same,MIC,"S. mutans; Streptococcus mutans, ATCC10449, 48 h",2.5 µM
same,MBC,[2]; read-out: MBC,20 µM
same,MBC,[2]; read-out: MBC (μg/ml),10.1 µg/mL
same,MIC,[2]; read-out: MIC,20 µM
same,MIC,[2]; read-out: MIC (μg/ml),10.1 µg/mL
same,MBC,"P. gingivalis; median of two strains (W 50, 381), read-out: MBC",2.5 µM
same,MBC,"P. gingivalis; median of two strains (W 50, 381), read-out: MBC (μg/ml)",1.3 µg/mL
same,MIC,"P. gingivalis; median of two strains (W 50, 381), read-out: MIC",2.5 µM
same,MIC,"P. gingivalis; median of two strains (W 50, 381), read-out: MIC (μg/ml)",1.2 µg/mL
same,MBC,[3]; read-out: MBC,10 µM
same,MBC,[3]; read-out: MBC (μg/ml),5.1 µg/mL
same,MIC,[3]; read-out: MIC,10 µM
same,MIC,[3]; read-out: MIC (μg/ml),5.1 µg/mL
same,MBC,E. coli HB101; read-out: MBC,2.5 µM
same,MBC,E. coli HB101; read-out: MBC (μg/ml),1.3 µg/mL
same,MIC,E. coli HB101; read-out: MIC,2.5 µM
same,MIC,E. coli HB101; read-out: MIC (μg/ml),1.3 µg/mL
same,MBEC50 (μg/ml),[4],>10 µg/mL
same,MBEC50 (μM),[4]; [7],>20 µM
